Source: US9381254B2, “Methods for preparing polymeric reagents” (Nektar Therapeutics, priority 2005, dated 2016)
Ends that are not written are not given here.

Experiments:
[1] = test system: diabetic db/db mice; test: In-vivo study in mice of blood-glucose lowering effects of GLP-1 polymer conjugates; set-up: species or system mouse; conditions: for blood glucose-lowering effect: single subcutaneous dose (GLP-1 60, 120 μg; conjugates 420 μg), FIG. 14; for PD effect when compared to the 20 kiloDalton PEG conjugate: single subcutaneous dose 420 μg
Procedure: Male diabetic mice (BKS.Cg-+Lepr db/+Lepr db/01aHsd) were purchased from Harlan Laboratories, Ltd. (Jerusalem, Israel). The 8-9 week old animals (30-40 gm) were placed in mouse cages (two animals per cage), and allowed at least 48 hours of acclimatization before the start of the study.
Each compound was accurately weighed into a glass vial and dissolved in normal saline in order to prepare a concentration that would accommodate for the dose (based on GLP-1 equivalents) and the injection volume of 100 μL.
The study was divided into two phases: a feasibility phase and an evaluation phase.
In the feasibility phase, the feasibility of using diabetic db/db mice to test the effectiveness of GLP-1 was first evaluated. In carrying out the feasibility phase, several groups of mice were used wherein four mice were used in each group. Data on the baseline glucose levels were gathered for each mouse for 2-3 days prior to drug dosing. This was performed to identify any outliers in the group of animals. On the day of treatment (Day 0) each animal was weighed. A time 0 day blood sample (5 to 10 μL) was collected from the tail vein. The glucose level (mg/dL) was measured using a glucose analyzer. Each animal was then dosed subcutaneously (SC) below the skin on the back. […] The animals were then allowed to return into their cages. Blood samples of 5 to 10 μL (<0.5% of 2 mL blood volume for a 35 g mouse) were removed through a needle prick/capillary tube at the following time points: −3, −2, −1, 0, 0.04, 0.16, 0.33, 1.0, 1.16 days. Each collected blood sample was tested for its glucose level. At the end of the study, the animals were humanely euthanized by carbon-dioxide asphyxiation.
In the evaluation phase, the results from the feasibility phase were used to select the appropriate doses required to attain a sustained delivery of GLP-1 for a 3-5 day effect. In carrying out the evaluation phase, eight mice were used in each group. Data on the baseline glucose levels were gathered for each mouse three days prior to drug dosing. On the day of treatment (Day 0) each animal was weighed. A time 0 day blood sample (5 to 10 μL) was collected from the tail vein. The glucose level (mg/dL) was measured using a glucose analyzer. Each animal was then dosed subcutaneously (SC) below the skin on the back. […] The animals were then allowed to return into their cages. Blood samples of 5 to 10 μL (<0.5% of 2 mL blood volume for a 35 g mouse) were removed through a needle prick/capillary tube at the following time points: −3, −2, −1, 0, 0.04, 0.16, 0.33, 0.5, 1, 2, 3, 6 days. Each collected blood sample was tested for its glucose level. Food was withdrawn from the animals for the first four hours after dosing. At the end of the study, the animals were humanely euthanized by carbon-dioxide asphyxiation.

[2] = Cleavable nature of GLP-1 conjugate in aqueous media (50 mM Tris, pH 10, overnight at 50° C.), SDS-PAGE / reverse phase HPLC; assay type: physicochemical; conditions: 50 mM Tris solution
Procedure: The column was a 100 mm×2.1 mm ID Betasil C18 column with 5 μm particles, available from Thermo Electron Corp. Reverse phase HPLC used a mobile phase of 0.1% TFA in deionized water (solution C) and 0.1% TFA in acetonitrile (solution D) conducted at 37° C. The gradient used for reverse phase HPLC was as follows: for time 0.00 to 20.00 minutes, 35% of the mobile phase contained solution D; for time 20.00 to 21.00 minutes, 55% of the mobile phase contained solution D; for time 21.00 to 23.00 minutes, 80% of the mobile phase contained solution D; for time 23.00 to 24.00 minutes, 80% of the mobile phase contained solution D; for time 24.00 to 25.00 minutes, 35% of the mobile phase contained solution D; for time 25.00 and above, 35% of mobile phase contained solution D.

Substance	blood glucose-lowering effect [1]	PD effect when compared to the 20 kiloDalton PEG conjugate [1]	release of GLP-1 from the conjugate [2]	clearance from the mouse (from pharmacodynamic measurements) ([1]; subcutaneous)
G2PEG2Fmoc20K-Lys-GLP-1: G2PEG2Fmoc20k-NHS covalently and releasably attached to a lysine position of GLP-1 (HAEGTFTSDVSSYLEGQAAKEFIAWLVKGR; ends and bridges not checked; also: releasable G2PEG2Fmoc20K PEG on a lysine; UniProt P01275 98-127, looked up)	confirmed			
G2PEG2Fmoc40K-Lys-GLP-1: G2PEG2Fmoc40k-NHS covalently and releasably attached to a lysine position of GLP-1 (HAEGTFTSDVSSYLEGQAAKEFIAWLVKGR; ends and bridges not checked; also: releasable G2PEG2Fmoc40K PEG on a lysine; UniProt P01275 98-127, looked up)	confirmed	small but extended PD effect		
G2PEG2Fmoc40k-N^ter-GLP-1		small but extended PD effect	complete release	
Glucagon-like Peptide I (7-36, “GLP-1”) [reference compound]	confirmed			cleared rapidly
